Results taken from US20100267827A1, “PHENYL-PRENYL-ETHER DERIVATIVES FOR THE TREATMENT OF COGNITIVE, NEURODEGENERATIVE OR NEURONAL DISEASES OR DISORDERS” (NOSCIRA, S.A., priority 2006, published 2010).

How the values were obtained:
[1] = target: recombinant human glycogen synthase kinase 3 beta (Homo sapiens, UniProt P49841); assay: GSK-3 beta inhibition assay; format: biochemical; conditions: 0.5 h, percentage of enzyme activity remaining; for remaining activity at 25 µM: 25 μM compound; for remaining activity at 50 µM: 50 μM compound
Chain of recombinant human glycogen synthase kinase 3 beta (P49841 whole entry): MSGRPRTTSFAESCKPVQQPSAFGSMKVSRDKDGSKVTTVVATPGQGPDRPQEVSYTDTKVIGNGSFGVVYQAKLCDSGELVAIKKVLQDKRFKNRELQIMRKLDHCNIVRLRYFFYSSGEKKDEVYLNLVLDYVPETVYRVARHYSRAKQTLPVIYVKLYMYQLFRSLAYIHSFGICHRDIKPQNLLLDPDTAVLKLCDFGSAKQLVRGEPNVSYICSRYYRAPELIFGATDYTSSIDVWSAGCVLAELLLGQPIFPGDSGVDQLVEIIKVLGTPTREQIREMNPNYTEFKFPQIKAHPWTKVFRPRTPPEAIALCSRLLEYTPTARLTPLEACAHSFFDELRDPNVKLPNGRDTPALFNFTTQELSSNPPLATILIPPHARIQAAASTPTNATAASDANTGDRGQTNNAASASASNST
Description: The GSK-3 beta activity of the compounds of formula (I) according to the present invention was determined by incubation of a mixture of recombinant human GSK-3 enzyme, a phosphate source and GSK-3 substrate in the presence and in the absence of the corresponding test compound, and by measuring the GSK-3 activity of this mixture. The compounds where tested at final concentrations of 25 and 50 μM.
Recombinant human glycogen synthase kinase 3 beta was assayed in MOPS 11 mM, pH 7.4, EDTA 0.2 mM, EGTA 1.25 mM, MgCl2 26.25 mM and sodium orthovanadate 0.25 mM in the presence of 62.5 μM of Phospho-Glycogen Synthase Peptide-2 (GS-2), 0.5 μCi gamma-^33P-ATP and unlabelled ATP at a final concentration of 12.5 μM. The final assay volume was 20 μl. After incubation for 30 minutes at 30° C., 15 μl aliquots were spotted onto P81 phosphocellulose papers. Filters were washed four times for at least 10 minutes each and counted with 1.5 ml of scintillation cocktail in a scintillation counter.
(§1) The compounds of formula (I) of the present invention where submitted to the above indicated assays, in order to determine both their GSK-3 inhibition activity and BACE activity inhibition. The results are indicated in Table I, in percentage of the respective enzyme activity.

[2] = target: T1, rhBACE-1 β-Secretase recombinant human (Homo sapiens, UniProt P56817); assay: BACE assay (FRET); format: biochemical; conditions: percentage of enzyme activity remaining
T1 construct: purchased R&D Systems 931-AS
T1 sequence (P56817 46-457 limits assumed): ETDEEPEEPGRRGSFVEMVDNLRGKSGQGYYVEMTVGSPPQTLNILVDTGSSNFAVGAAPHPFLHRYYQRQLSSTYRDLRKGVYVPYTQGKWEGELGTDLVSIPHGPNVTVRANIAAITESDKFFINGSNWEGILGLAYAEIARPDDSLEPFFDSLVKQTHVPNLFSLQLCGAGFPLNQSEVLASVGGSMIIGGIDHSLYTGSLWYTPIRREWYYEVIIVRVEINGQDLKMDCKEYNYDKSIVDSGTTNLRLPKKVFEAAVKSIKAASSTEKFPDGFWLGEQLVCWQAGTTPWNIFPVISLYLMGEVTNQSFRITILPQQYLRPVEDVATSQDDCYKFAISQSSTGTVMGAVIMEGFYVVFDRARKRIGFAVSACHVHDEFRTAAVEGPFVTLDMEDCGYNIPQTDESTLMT
Excerpt: The aim of this assay is to determine if a compound, either synthetic or of marine origin, is a BACE-1 inhibitor, to avoid the formation of Aβ. This assay is based on FRET technology (Fluorescence Resonance Energy Transfer). FRET is used to measure cleavage of a peptide substrate, among other uses. […] When a substrate peptide cleavage occurs, the energy balance is broken and all the donor fluorescence can be observed. The increase in fluorescence is linearly related to the rate of proteolysis (Gordon, G W et al., 1998). In this assay the reaction occurs between an enzyme, purified BACE-1, and a fluorogenic peptidic substrate who present the “Swedish mutation”. The peptide cleavage by BACE-1 produces fluorescence energy and enzymatic activity can be quantified.
The reagents which are used in this assay are the following:
rhBACE-1 β-Secretase recombinant human (R&D Systems. Ref. 931-AS).
Fluorogenic Peptide Substrate IV (R&D Systems. Ref. ES004).
Beta-SECRETASE INHIBITOR H-4848. (BACHEM. Ref. H-4848.0001).
The assay is carried out in a 96 wells microplate. The final concentration of substrate is 3.5 μM per well, and the enzyme concentration is 0.5 μg/ml. The final volume of the assay is 100 μl per well and all reagents are diluted in Reaction Buffer. The compounds are tested at a concentration of 10^−5 and 10^−6 M. The control in the assay is the commercial inhibitor R-Secretase inhibitor H-4848 from BACHEM, which is tested at 300 nM. All the samples and controls are studied by duplicate.
The plate is mixed gently and changes in the fluorescence are measured using a fluorimeter plate reader, with 320 nm excitation filter and 405 nm emission filter. The temperature should be preferably maintained between 25 and 30° C. Measurements are carried out every ten minutes during an hour. The first measure is subtracted from the last to calculate the fluorescence increase, evaluating the enzymatic activity. The 100% activity is calculated as the mean of the results of wells without sample or inhibitor.
In the cases where abnormal effects in fluorescence were detected, BACE inhibition activity was assayed using BACE-1 (beta-Secretase) FRET ASSAY KIT (Invitrogen, Ref. P2985). Fluorescence was measured with a fluorimeter plate reader, with 544 nm excitation filter and 580 nm emission filter.
as §1

Compound | remaining activity at 25 µM [1] | remaining activity at 50 µM [1] | % of BACE activity ([2]; 1 μM compound) | % of BACE activity ([2]; 10 μM compound)
COC(=O)c1ccc(OC)c(OC/C=C(\C)CCC=C(C)C)c1 [Compound 2, 3-(3,7-Dimethyl-octa-2,6-dienyloxy)-4-methoxy-benzoic acid methyl ester] | 88.1% | 68% | 100% | 18.5 ± 12.1%
COC(=O)c1cccc(OC/C=C(\C)CCC=C(C)C)c1 [Compound 5] | 94.4% | 80.7% | 13.3% | 0%
CC(C)=CCC/C(C)=C/COc1cccc(C(=O)O)c1 [Compound 6] | 70.3% | 80% | 87.5 ± 17% | 36.5 ± 38%
COC(=O)c1ccc(N)c(OC/C=C(\C)CCC=C(C)C)c1 [Compound 8, 4-Amino-3-(3,7-dimethyl-octa-2,6-dienyloxy)-benzoic acid methyl ester] | 85.6% | 71% | 100% | 81 ± 8%
COC(=O)c1ccc(N)c(OC/C=C(\C)CC/C=C(\C)CCC=C(C)C)c1 [Compound 9, 4-Amino-3-(3,7,11-trimethyl-dodeca-2,6,10-trienyloxy)-benzoic acid methyl ester] | 91.7% | 59.5% | 100% | 80 ± 13%
COC(=O)c1ccc(OC)c(OC/C=C(\C)CCC=C(C)C)c1C/C=C(\C)CCC=C(C)C [Compound 10] | 56% | 19.5% | 86.5 ± 5% | 82 ± 10%
COc1ccc(C(=O)OC/C=C(\C)CCC=C(C)C)cc1OC/C=C(\C)CCC=C(C)C [Compound 11, 3-(3,7-Dimethyl-octa-2,6-dienyloxy)-4-methoxy-benzoic acid 3,7-dimethyl-octa-2,6-dienyl ester] | 84.8% | 58.2% | 48 ± 2% | 8 ± 3%
COc1ccc(C(=O)NC/C=C(\C)CCC=C(C)C)cc1OC/C=C(\C)CCC=C(C)C [Compound 12, N-(3,7-Dimethyl-octa-2,6-dienyl)-3-(3,7-dimethyl-octa-2,6-dienyloxy)-4-methoxy-benzamide] | 47.5% | 27.9% | 99 ± 7% | 42 ± 18%
COc1ccc(C(=O)OCC=C(C)C)cc1OC/C=C(\C)CCC=C(C)C [Compound 13] | 54.6% | 7.36% | 49 ± 5% | 0%
CC(C)=CCC/C(C)=C/CC/C(C)=C/COc1cc(C(=O)O)ccc1N [Compound 17, 4-Amino-3-(3,7,11-trimethyl-dodeca-2,6,10-trienyloxy)-benzoic acid] | 90.4% | 65.5% | 100% | 79 ± 13%
COC(=O)c1ccc(NC(C)=O)c(OC/C=C(\C)CCC=C(C)C)c1 [Compound 19, 4-Acetylamino-3-(3,7-dimethyl-octa-2,6-dienyloxy)-benzoic acid methyl ester] | – | 85.1% | 3.5 ± 5% | 0%
COC(=O)c1ccc(NC(C)=O)c(OC/C=C(\C)CC/C=C(\C)CCC=C(C)C)c1 [Compound 20] | 74.4% | 40% | 2 ± 4.5% | 0%
CC(=O)Nc1ccc(C(=O)O)cc1OC/C=C(\C)CC/C=C(\C)CCC=C(C)C [Compound 21, 4-Acetylamino-3-(3,7,11-trimethyl-dodeca-2,6,10-trienyloxy)-benzoic acid] | 90% | 57.5% | 68.5 ± 0.7% | 29 ± 10%
COCOC(=O)c1ccc(OC)c(OC/C=C(\C)CCC=C(C)C)c1 [Compound 23, 3-(3,7-Dimethyl-octa-2,6-dienyloxy)-4-methoxy-benzoic acid methoxymethyl ester] | 53% | 18.6% | 61 ± 133% | 0%
CC(C)=CCC/C(C)=C/CC/C(C)=C/COc1ccc(C(=O)O)cc1OC/C=C(\C)CC/C=C(\C)CCC=C(C)C [Compound 24, 3,4-Bis-(3,7,11-trimethyl-dodeca-2,6,10-trienyloxy)-benzoic acid] | 12.4% | 4.55% | 30 ± 7% | 26 ± 13%
CCOC(=O)c1ccc(O)c(OC/C=C(\C)CCC=C(C)C)c1 [Compound 27] | 48.3% | 7.61% | 100% | 50 ± 16%
CC(C)=CCC/C(C)=C/COc1cc(C(=O)O)ccc1O [Compound 28] | 90.8% | 95.7% | 100% | 89 ± 6%
